Source: patent EP0490598A1 (priority 1990, dated 1992)
Values after ≈ are worked out from the molar mass of the structure shown. Where two headings read alike, the source gives them in different places.

Columns and labels:
Balb/c lymphocytes = assay: Lymphocyte Viability (LCV) assay, MTT; type: cell-based, mice; details: Mus musculus, 96 hours, 50% viability
Experimental: (§1) Murine lymphocytes were derived by splenectomy, under sterile conditions, from Balb/c and C57B1/6 mice sacrificed by cervical dislocation. Spleens were homogenized in 15 mM RPMI medium […], 87%; fetal calf serum, 10%; L-glutamine (200 mM), 2% and supplemented with 1% antibiotic-antimycotic solution (GIBCO) and 25 µg/ml gentamycin. Red blood cells were lysed by brief exposure to sterile, distilled water and subsequently reconstituted to normal tonicity with PBS (10x). The final cell preparation was enumerated, and the viability evaluated, by means of a hemacytometer using the trypan blue exclusion method.
The LCV is an in vitro cytotoxicity assay for murine lymphocytes designed by the investigator. […] The percent viable cells is determined by the MTT-thiazolyl blue method after a similar incubation in the MLR of lymphocytes with the test sample. […] If there is no significant reduction in cell viability, as determined by this detection method, then damaged cells are probably not present for low data values generated in the MLR. Colorimetric data from the LeV is calculated as a percentage of viability, relative to control, using the following formula: (Experimental value - (Nonspecific Color))/(Positive Control - (Media))x 100 [formula] […]

[1] = system: VSV (vesicular stomatitis virus); type: cell-based; details: VSV in BHK cells
BHK cells = assay: Cytotoxicity assay, BHK cell growth (cell counting); type: cell-based, hamster; details: Mesocricetus auratus, 72 h, three days of incubation, read-out: IC50 ng/ml approx.
Experimental: (§2) Pateamine was diluted in MeOH/CH₂Cl₂ 1:1 at 100 ng/ml and it has been tested at different concentrations. The solvent was allowed to evaporate before the cells were seeded.
It has been done two kinds of cytotoxicity assays, one of them employing the same screening protocols and another one with the MTT method. In both cases the cells were: CV-1 (monkey kidney fribroblast) BHK (hamster kidney fibroblast)
BHK cells were seeded into 16 mm wells at 2 x 10⁴ per well. The day after the inoculum was replaced by 1 ml aliquots of MEM 10FCS containing the indicated concentration of drug. All determinations were carried out in duplicate. After three days of incubation cells were counted and the IC₅₀ was determined.

P-388 cells = assay: Antitumoral assay, P-388 cell growth (cell counting); type: cell-based, mouse; details: for IC50: Mus musculus
Experimental: as §2
Four general anitumoural assays, employing the current screening protocols have been carried out using the following cells: P-388 (lymphoid neoplasm from DBA/2 mouse) A-549 (human lung carcinoma) HT-29 (human colon carcinoma) KB (human oral epidermoid carcinoma)
P-388 cells were seeded into 16 mm wells at 1 x 10⁴ per well in […] aliquots of MEM 10FCS containing the indicated concentration or drug. All determinations were carried out in duplicate. After three days of incubation cells were counted and the IC₅₀ was determined.

murine lymphocytes = assay: Mixed Lymphocyte Reaction (MLR) assay; type: cell-based, mice; details: Mus musculus, two-way MLR, Balb/c and C57B1/6 lymphocytes, 96 hours, 3H-thymidine
Experimental: as §1
The MLR is an in vitro test of cellular immunity in which murine lymphocytes from genetically dissimilar animals are cocultured to mutually induce cell proliferation (i.e. two-way MLR method). […] Data from the MLR is generated as dpm of radioactivity which is then expressed as a percentage of cellular activity, relative to control, using the following reduced formula: (Experimental value - (Balb/c - C57B1/6 - Media))/(Positive Control - (Balb/c - C57B1/6 - Media))x 100 [formula] […]
Reconstituted compound at each of several concentrations was added in duplicate (10µl) into wells of a 96-well microtiter plate and evaporated to dryness at room temperature. […] The radioactivity from DNA-bound 3H thymidine was counted using a dry INOTECH counter. Results were calculated as described above.

**Q.** Which results are given for `CC(/C=C/C(C)=C/C1Cc2nc(cs2)C(C)CC(N)CC(=O)OC(C)C/C(C)=C/C=C\C(=O)O1)=C\CN(C)C` (centres unmarked) [PATEAMINE, pateamine]?
**A.** IC50 (Balb/c lymphocytes): 4100 ng/mL (≈ 7380 nM); IC50 ng/disk [1]: >10 ng/disk; % Inhibition BHK/VSV (sign for plaque reduction) ([1]; 10ng): 14 - (The sign (-), indicates no inhibition of virus replication.); IC50 (BHK cells): ~3 ng/mL (≈ 5.4 nM); % Inhibition P-388 cell growth (P-388 cells; 0.1ng, three days of incubation): 11%; % Inhibition P-388 cell growth (P-388 cells; 1ng, three days of incubation): 100%; % Inhibition P-388 cell growth (P-388 cells; 5ng, three days of incubation): 100%; % Inhibition P-388 cell growth (P-388 cells; 10ng, three days of incubation): 100%; IC50 (P-388 cells; P388, 72 h, P-388, three days of incubation, read-out: IC50 ng/ml approx.): ~0.3 ng/mL (≈ 0.54 nM); IC50 (P-388 cells; P388, read-out: IC50): 0.15 ng/mL (≈ 0.27 nM); IC50 (murine lymphocytes): < 1.5 ng/mL
